Data on ten molecules can be found in US9758529B2, “Fused dihydro-4H-pyrazolo[5,1-C][1,4]oxazinyl compounds and analogs for treating CNS disorders” (Sunovion Pharmaceuticals Inc., priority 2015, dated 2017).

Structures are written as SMILES.

This test has as its system mice. Kind of test: Neuropharmacological Assay (SmartCube). It counts as in vivo. Particulars: i.p. 15 min before behavioral test; 3 doses, most efficacious dose(s) presented.
As for `Cl.c1ccc2c3n(nc2c1)CCOC3[C@H]1CNCCO1` (stereo partly drawn) [Compound 42, (2R)-2-(3,4-dihydro-1H-[1,4]oxazino[4,3-b]indazol-1-yl)morpholin-4-ium chloride], the “AD: ADHD (probability of class match)” value is “+ (LOQ≦ + <5%)”, the “AG: analgesic (probability of class match)” value (shortened to “AG: analgesic”) is given as “+ (LOQ≦ + <5%)”, the “AX: anxiolytic (probability of class match)” value (shortened to “AX: anxiolytic”) is on record as “+ (LOQ≦ + <5%)” and the “CE: cognitive enhancer (probability of class match)” value (“CE: cognitive enhancer” below) was “+ (LOQ≦ + <5%)”. Besides, the “DP: anti-depressant (probability of class match)” value (from here on “DP: anti-depressant”) is listed as “+ (LOQ≦ + <5%)”, the “HA: hallucinogen (probability of class match)” value (“HA: hallucinogen” below) was “+ (LOQ≦ + <5%)”, the “MS: mood stabilizer (probability of class match)” value (“MS: mood stabilizer” below) is “+ (LOQ≦ + <5%)” and the “PS: anti-psychotic (probability of class match)” value (shortened to “PS: anti-psychotic”) is “+ (LOQ≦ + <5%)”. Further, the “SD: sedative hypnotic (probability of class match)” value (“SD: sedative hypnotic” below) is on record as “+ (LOQ≦ + <5%)”, the “UN: uncharacterized CNS activity (probability of class match)” value (“UN: uncharacterized CNS activity” for short) is given as “+ (LOQ≦ + <5%)” and the “XG: anxiogenic (probability of class match)” value (“XG: anxiogenic” for short) is on record as “+ (LOQ≦ + <5%)”.
On to `Cl.c1ccc2c3n(nc2c1)CCOC3[C@@H]1COCCN1` (stereo partly drawn) [Compound 43, (3S)-3-(3,4-dihydro-1H-[1,4]oxazino[4,3-b]indazol-1-yl)morpholin-4-ium chloride], for which the “AD: ADHD (probability of class match)” value was “+ (LOQ≦ + <5%)”, the “AG: analgesic” value was “+ (LOQ≦ + <5%)”, the “AX: anxiolytic” value is “+ (LOQ≦ + <5%)” and the “CE: cognitive enhancer” value was “+ (LOQ≦ + <5%)”. The “DP: anti-depressant” value is “+ (LOQ≦ + <5%)”, the “HA: hallucinogen” value is “+ (LOQ≦ + <5%)”, the “MS: mood stabilizer” value is given as “+ (LOQ≦ + <5%)” and the “PS: anti-psychotic” value is “+ (LOQ≦ + <5%)”. The “SD: sedative hypnotic” value was “+ (LOQ≦ + <5%)”, the “UN: uncharacterized CNS activity” value is “+ (LOQ≦ + <5%)” and the “XG: anxiogenic” value was “+ (LOQ≦ + <5%)”.
For `Cl.c1ccc2c3n(nc2c1)CCOC31CCNC1` (centres unmarked) [Compound 44, 3′,4′-dihydrospiro[pyrrolidine-3,1′-[1,4]oxazino[4,3-b]indazol]-1-ium chloride], the “AD: ADHD (probability of class match)” value is reported as “+ (LOQ≦ + <5%)”, the “AG: analgesic” value is recorded as “++ (5%≦ ++ <25%)”, the “AX: anxiolytic” value is listed as “+++ (25%≦ +++ <50%)” and the “CE: cognitive enhancer” value is on record as “++ (5%≦ ++ <25%)”. Also, the “DP: anti-depressant” value is listed as “++ (5%≦ ++ <25%)”, the “HA: hallucinogen” value is given as “+ (LOQ≦ + <5%)”, the “MS: mood stabilizer” value is “+ (LOQ≦ + <5%)” and the “PS: anti-psychotic” value was “++ (5%≦ ++ <25%)”. Further, the “SD: sedative hypnotic” value is “+ (LOQ≦ + <5%)”, the “UN: uncharacterized CNS activity” value is given as “+ (LOQ≦ + <5%)” and the “XG: anxiogenic” value is listed as “+ (LOQ≦ + <5%)”.
`CCN(C)C[C@@H]1OCCn2nc3ccccc3c21.Cl` [Compound 49, N—(((S)-3,4-dihydro-1H-[1,4]oxazino[4,3-b]indazol-1-yl)methyl)-N-methylethanaminium chloride]: the “AD: ADHD (probability of class match)” value is given as “+ (LOQ≦ + <5%)”, the “AG: analgesic” value is listed as “+++ (25%≦ +++ <50%)”, the “AX: anxiolytic” value is listed as “++ (5%≦ ++ <25%)” and the “CE: cognitive enhancer” value is listed as “++ (5%≦ ++ <25%)”. Moreover, the “DP: anti-depressant” value is on record as “++ (5%≦ ++ <25%)”, the “HA: hallucinogen” value is given as “+ (LOQ≦ + <5%)”, the “MS: mood stabilizer” value is “+ (LOQ≦ + <5%)” and the “PS: anti-psychotic” value was “+ (LOQ≦ + <5%)”. For the same molecule, the “SD: sedative hypnotic” value was “++ (5%≦ ++ <25%)”, the “UN: uncharacterized CNS activity” value is on record as “+ (LOQ≦ + <5%)” and the “XG: anxiogenic” value was “+ (LOQ≦ + <5%)”.
For `CCN(C)C[C@H]1OCCn2nc3ccccc3c21.Cl` [Compound 50, N—(((R)-3,4-dihydro-1H-[1,4]oxazino[4,3-b]indazol-1-yl)methyl)-N-methylethanaminium chloride], the “AD: ADHD (probability of class match)” value is given as “++ (5%≦ ++ <25%)”, the “AG: analgesic” value is “+ (LOQ≦ + <5%)”, the “AX: anxiolytic” value was “+++ (25%≦ +++ <50%)” and the “CE: cognitive enhancer” value is recorded as “+ (LOQ≦ + <5%)”. Further, the “DP: anti-depressant” value is recorded as “++++ (50%≦ ++++)”, the “HA: hallucinogen” value is reported as “++ (5%≦ ++ <25%)”, the “MS: mood stabilizer” value is on record as “+ (LOQ≦ + <5%)” and the “PS: anti-psychotic” value is reported as “+ (LOQ≦ + <5%)”. Also, the “SD: sedative hypnotic” value is on record as “+ (LOQ≦ + <5%)”, the “UN: uncharacterized CNS activity” value is given as “+ (LOQ≦ + <5%)” and the “XG: anxiogenic” value was “+ (LOQ≦ + <5%)”.
For the molecule `CNCC1OCCCn2nc3ccccc3c21.Cl` (centres unmarked) [Compound 51, 1-(4,5-dihydro-1H,3H-[1,4]oxazepino[4,3-b]indazol-1-yl)-N-methylmethanaminium chloride], the “AD: ADHD (probability of class match)” value is recorded as “++ (5%≦ ++ <25%)”, the “AG: analgesic” value was “+ (LOQ≦ + <5%)”, the “AX: anxiolytic” value is recorded as “++ (5%≦ ++ <25%)” and the “CE: cognitive enhancer” value is “+ (LOQ≦ + <5%)”. For the same molecule, the “DP: anti-depressant” value was “+++ (25%≦ +++ <50%)”, the “HA: hallucinogen” value is recorded as “+ (LOQ≦ + <5%)”, the “MS: mood stabilizer” value was “+ (LOQ≦ + <5%)” and the “PS: anti-psychotic” value is listed as “+ (LOQ≦ + <5%)”. Moreover, the “SD: sedative hypnotic” value was “+ (LOQ≦ + <5%)”, the “UN: uncharacterized CNS activity” value is “+ (LOQ≦ + <5%)” and the “XG: anxiogenic” value is on record as “+ (LOQ≦ + <5%)”.
`CN(C)CC1OCCCn2nc3ccccc3c21.Cl` (centres unmarked) [Compound 52, 1-(4,5-dihydro-1H,3H-[1,4]oxazepino[4,3-b]indazol-1-yl)-N,N-dimethylmethanaminium chloride]: the “AD: ADHD (probability of class match)” value was “+ (LOQ≦ + <5%)”, the “AG: analgesic” value is recorded as “+ (LOQ≦ + <5%)”, the “AX: anxiolytic” value is reported as “++ (5%≦ ++ <25%)” and the “CE: cognitive enhancer” value is listed as “+ (LOQ≦ + <5%)”. For the same molecule, the “DP: anti-depressant” value is recorded as “++ (5%≦ ++ <25%)”, the “HA: hallucinogen” value is on record as “+ (LOQ≦ + <5%)”, the “MS: mood stabilizer” value is “+ (LOQ≦ + <5%)” and the “PS: anti-psychotic” value is recorded as “+ (LOQ≦ + <5%)”. Besides, the “SD: sedative hypnotic” value is recorded as “+ (LOQ≦ + <5%)”, the “UN: uncharacterized CNS activity” value is on record as “++ (5%≦ ++ <25%)” and the “XG: anxiogenic” value is on record as “+ (LOQ≦ + <5%)”.
With `CCN(C)CC1OCCCn2nc3ccccc3c21.Cl` (centres unmarked) [Compound 53, N-((4,5-dihydro-1H,3H-[1,4]oxazepino[4,3-b]indazol-1-yl)methyl)-N-methylethanaminium chloride], the “AD: ADHD (probability of class match)” value is recorded as “+ (LOQ≦ + <5%)”, the “AG: analgesic” value is reported as “+ (LOQ≦ + <5%)”, the “AX: anxiolytic” value is on record as “++ (5%≦ ++ <25%)” and the “CE: cognitive enhancer” value was “+ (LOQ≦ + <5%)”. Also, the “DP: anti-depressant” value is “++ (5%≦ ++ <25%)”, the “HA: hallucinogen” value is on record as “+ (LOQ≦ + <5%)”, the “MS: mood stabilizer” value is on record as “+ (LOQ≦ + <5%)” and the “PS: anti-psychotic” value is given as “+ (LOQ≦ + <5%)”. Also, the “SD: sedative hypnotic” value was “++ (5%≦ ++ <25%)”, the “UN: uncharacterized CNS activity” value is reported as “++ (5%≦ ++ <25%)” and the “XG: anxiogenic” value is listed as “+ (LOQ≦ + <5%)”.
For the molecule `CC(C)N(C)CC1OCCCn2nc3ccccc3c21.Cl` (centres unmarked) [Compound 54, N-((4,5-dihydro-1H,3H-[1,4]oxazepino[4,3-b]indazol-1-yl)methyl)-N-methylpropan-2-aminium chloride], the “AD: ADHD (probability of class match)” value is reported as “+ (LOQ≦ + <5%)”, the “AG: analgesic” value is on record as “+ (LOQ≦ + <5%)”, the “AX: anxiolytic” value was “++ (5%≦ ++ <25%)” and the “CE: cognitive enhancer” value was “+ (LOQ≦ + <5%)”. The “DP: anti-depressant” value is “+ (LOQ≦ + <5%)”, the “HA: hallucinogen” value is “+ (LOQ≦ + <5%)”, the “MS: mood stabilizer” value is “+ (LOQ≦ + <5%)” and the “PS: anti-psychotic” value is “+ (LOQ≦ + <5%)”. Besides, the “SD: sedative hypnotic” value is given as “+ (LOQ≦ + <5%)”, the “UN: uncharacterized CNS activity” value was “+ (LOQ≦ + <5%)” and the “XG: anxiogenic” value is given as “+ (LOQ≦ + <5%)”.
In the case of `CN(CC1OCCCn2nc3ccccc3c21)C1CCC1.Cl` (centres unmarked) [Compound 55, N-((4,5-dihydro-1H,3H-[1,4]oxazepino[4,3-b]indazol-1-yl)methyl)-N-methylcyclobutanaminium chloride], the “AD: ADHD (probability of class match)” value was “+ (LOQ≦ + <5%)”, the “AG: analgesic” value is “+ (LOQ≦ + <5%)”, the “AX: anxiolytic” value was “++ (5%≦ ++ <25%)” and the “CE: cognitive enhancer” value was “+ (LOQ≦ + <5%)”. In addition, the “DP: anti-depressant” value was “+ (LOQ≦ + <5%)”, the “HA: hallucinogen” value was “+ (LOQ≦ + <5%)”, the “MS: mood stabilizer” value is listed as “+ (LOQ≦ + <5%)” and the “PS: anti-psychotic” value is “+ (LOQ≦ + <5%)”. Further, the “SD: sedative hypnotic” value was “+ (LOQ≦ + <5%)”, the “UN: uncharacterized CNS activity” value is on record as “+++ (25%≦ +++ <50%)” and the “XG: anxiogenic” value is “+ (LOQ≦ + <5%)”.
